Reference: PubChem BioAssay (NCI)
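The concentration for 50% growth inhibition is given as GI50. The concentration for full growth arrest is given as TGI.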

Legend:
Test in all cases: NCI anticancer screen, dose series, 384-well format
ACHN renal = tested on: ACHN renal
DU-145 prostate = tested on: DU-145 prostate
TK-10 renal = tested on: TK-10 renal
SF-539 CNS = tested on: SF-539 CNS
HOP-92 NSCLC = tested on: HOP-92 NSCLC
CCRF-CEM leukemia = tested on: CCRF-CEM leukemia
MDA-MB-231 breast = tested on: MDA-MB-231 breast
U251 glioblastoma = tested on: U251 glioblastoma
HCT-15 colon = tested on: HCT-15 colon
NCI/ADR-RES ovarian = tested on: NCI/ADR-RES ovarian
UO-31 renal = tested on: UO-31 renal
OVCAR-8 ovarian = tested on: OVCAR-8 ovarian
SK-MEL-28 melanoma = tested on: SK-MEL-28 melanoma
PC-3 prostate = tested on: PC-3 prostate
SW-620 colon = tested on: SW-620 colon
OVCAR-4 ovarian = tested on: OVCAR-4 ovarian
MALME-3M melanoma = tested on: MALME-3M melanoma
CAKI-1 renal = tested on: CAKI-1 renal
HCC-2998 colon = tested on: HCC-2998 colon
SK-MEL-5 melanoma = tested on: SK-MEL-5 melanoma
UACC-257 melanoma = tested on: UACC-257 melanoma
RXF 393 renal = tested on: RXF 393 renal
UACC-62 melanoma = tested on: UACC-62 melanoma
MDA-MB-435 melanoma = tested on: MDA-MB-435 melanoma
RPMI-8226 leukemia = tested on: RPMI-8226 leukemia
NCI-H322M lung = tested on: NCI-H322M lung
T-47D breast = tested on: T-47D breast
MCF7 breast = tested on: MCF7 breast

`C=CC(=O)Nc1cc(Nc2ncc(C(=O)OC(C)C)c(-c3cn(C)c4ccccc34)n2)c(OC)cc1N(C)CCN(C)C` gave a GI50 (ACHN renal) of 0.0647 µM, a TGI (ACHN renal) of 1.85 µM and a GI50 (DU-145 prostate) of 1.15 µM. The TGI (DU-145 prostate) was 6.14 µM, the GI50 (TK-10 renal) was 0.0635 µM and the TGI (TK-10 renal) was 1.71 µM. The GI50 (SF-539 CNS) was 1.79 µM, the TGI (SF-539 CNS) was 3.18 µM and the GI50 (HOP-92 NSCLC) was 1.45 µM. It also gave a TGI (HOP-92 NSCLC) of 2.86 µM, a GI50 (CCRF-CEM leukemia) of 1.81 µM and a TGI (CCRF-CEM leukemia) of 3.2 µM. For the same molecule, the GI50 (MDA-MB-231 breast) was 1.79 µM, the TGI (MDA-MB-231 breast) was 3.24 µM and the GI50 (U251 glioblastoma) was 1.75 µM. For the same molecule, the TGI (U251 glioblastoma) was 3.13 µM, the GI50 (HCT-15 colon) was 1.83 µM and the TGI (HCT-15 colon) was 3.23 µM. For the same molecule, the GI50 (NCI/ADR-RES ovarian) was 1.55 µM, the TGI (NCI/ADR-RES ovarian) was 4.34 µM and the GI50 (UO-31 renal) was 1.02 µM. It also gave a TGI (UO-31 renal) of 2.19 µM, a GI50 (OVCAR-8 ovarian) of 1.75 µM and a TGI (OVCAR-8 ovarian) of 3.31 µM. The GI50 (SK-MEL-28 melanoma) was 1.71 µM, the TGI (SK-MEL-28 melanoma) was 3.08 µM and the GI50 (PC-3 prostate) was 2.1 µM. It also gave a TGI (PC-3 prostate) of 4.08 µM, a GI50 (SW-620 colon) of 1.92 µM and a TGI (SW-620 colon) of 3.34 µM. The GI50 (OVCAR-4 ovarian) was 1.8 µM, the TGI (OVCAR-4 ovarian) was 4.21 µM and the GI50 (MALME-3M melanoma) was 1.69 µM. The TGI (MALME-3M melanoma) was 3.06 µM, the GI50 (CAKI-1 renal) was 1.04 µM and the TGI (CAKI-1 renal) was 2.25 µM. For the same molecule, the GI50 (HCC-2998 colon) was 1.47 µM, the TGI (HCC-2998 colon) was 2.8 µM and the GI50 (SK-MEL-5 melanoma) was 1.89 µM. The TGI (SK-MEL-5 melanoma) was 3.29 µM, the GI50 (UACC-257 melanoma) was 1.5 µM and the TGI (UACC-257 melanoma) was 2.83 µM. The GI50 (RXF 393 renal) was 1.45 µM, the TGI (RXF 393 renal) was 2.76 µM and the GI50 (UACC-62 melanoma) was 1.63 µM. The TGI (UACC-62 melanoma) was 2.99 µM, the GI50 (MDA-MB-435 melanoma) was 1.83 µM and the TGI (MDA-MB-435 melanoma) was 3.23 µM. For the same molecule, the GI50 (RPMI-8226 leukemia) was 1.19 µM, the TGI (RPMI-8226 leukemia) was 2.42 µM and the GI50 (NCI-H322M lung) was 0.0143 µM. It also gave a TGI (NCI-H322M lung) of 1.76 µM, a GI50 (T-47D breast) of 1.28 µM and a TGI (T-47D breast) of 2.56 µM. The GI50 (MCF7 breast) was 1.71 µM.
